Experimental data as given in PMC3858552, “The discovery of potent ribosomal S6 kinase inhibitors by high-throughput screening and structure-guided drug design” (Oncotarget, 2013).
Where two headings read alike, the source gives them in different places.

Legend:
[1] = target: T1, S6K1 (Homo sapiens, UniProt P23443, T412E); assay: S6K1 DELFIA phosphorylation assay (IC50 of screening hits); format: biochemical; settings: for LE (ligand efficiency): calculated using the mean IC50 values; for IC50: repurchased samples
T1 construct: The His-tagged kinase domain of S6K1 (residues 1-421, catalogue number 14-486) used in the HTS; His; purchased Millipore (Upstate/Millipore) 14-486
T1 sequence (P23443 1-421 T412E limits assumed): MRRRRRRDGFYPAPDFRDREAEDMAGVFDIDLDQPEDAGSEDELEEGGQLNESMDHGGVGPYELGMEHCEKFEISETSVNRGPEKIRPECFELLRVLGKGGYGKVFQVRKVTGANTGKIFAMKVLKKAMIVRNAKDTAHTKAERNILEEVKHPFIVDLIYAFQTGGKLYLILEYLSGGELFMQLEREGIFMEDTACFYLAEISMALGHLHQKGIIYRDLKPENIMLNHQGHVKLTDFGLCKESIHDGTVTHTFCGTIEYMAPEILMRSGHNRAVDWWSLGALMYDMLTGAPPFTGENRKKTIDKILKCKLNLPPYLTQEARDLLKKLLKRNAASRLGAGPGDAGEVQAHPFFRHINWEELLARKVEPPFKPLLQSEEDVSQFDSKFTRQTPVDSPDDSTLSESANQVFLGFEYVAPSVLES
Procedure: For primary screening hits, IC50 values were determined using a DELFIA® assay that monitors phosphorylation of a S6 peptide using a specific phospho-antibody. The enzyme reaction was carried out in 96 well polypropylene plates (#650261; Greiner Bio-One, Frickenhausen, Germany).
For each compound, a 10mM stock was diluted in water resulting in a 1250 μM solution in 12.5% (v/v) DMSO. Compounds were manually diluted 1 in 3 in 12.5% (v/v) DMSO to give an eight point dilution curve in duplicate. Finally, 5 μL compound solution or 12.5% (v/v) DMSO was transferred to the assay plate resulting in compound assay concentrations of 0.12-250 μM.
Subsequently, 20 μL of reaction reagents were added to the assay plate resulting in final assay concentrations of 1 μM S6 peptide (biotin-[…], synthesised by J. Metcalfe, ICR), 2 nM S6K1 (#14-486; Millipore, Billerica, MA, USA) and 30 μM ATP in assay buffer consisting of 40 mM HEPES pH 7.4, 10 mM MgCl2, 1 mM DTT and 0.02% (v/v) Tween 20. The reaction was incubated for an hour at 37 °C and stopped by the addition of 125 μL buffer comprising 40 mM EDTA, 0.05% (v/v) Tween 20, 0.1% (w/v) BSA in TBS (10x concentrate, Sigma-Aldrich, Gillingham, UK). A 100 μL aliquot of the reaction solution was transferred to a black neutravidin-coated plate (#15117; Perbio/Thermo Scientific, Cramlington, UK) and incubated for an hour on a Titertek shaker (Flow Laboratories, Sutton, UK) at room temperature. The plates were washed four times with WellWash4 wash buffer (Thermo Life Sciences Ltd, Basingstoke, UK) containing 25 mM Tris pH 8, 150 mM NaCl and 0.1% (v/v) Tween 20 and incubated for an hour with 100 μL of an antibody mix consisting of 0.05 nM of an anti-phospho S6 antibody (#2211; Cell Signalling Technology) and 0.18 μg/mL of an europium-labelled anti-rabbit IgG, (#AD0105; PerkinElmer Life Sciences, Waltham, MA, USA) diluted in DELFIA assay buffer (#4002-0010; PerkinElmer Life Sciences). The plates were washed a further four times with WellWash4 wash buffer (Thermo Life Sciences) before the addition of 100 μL Enhancement Solution (#4001-0010; PerkinElmer Life Sciences). The plate was read on an EnVision® 2103 Multilabel Reader (PerkinElmer Life Sciences) using a time-resolved measurement mode reading fluorescence at 615 nm. IC50 values were calculated from a four-parameter logistics fit of percentage inhibition versus concentration using GraphPad Prism 5 (GraphPad Software, Inc., CA, USA).

[2] = target: S6K1 (Homo sapiens, UniProt P23443); assay: S6K1 mobility shift (microfluidic) assay; format: biochemical; settings: for LE (ligand efficiency): calculated using the mean IC50 values; for activity against S6K1 (in words): benzimidazole / azabenzimidazole oxadiazoles
Chain of S6K1 (Homo sapiens, UniProt P23443) (P23443 1-421): as the sequence (P23443 1-421 T412E limits assumed) above, with E412T counted along it
Procedure: For all compounds from the benzimidazole oxadiazole/azabenzimidazole oxadiazole series, the IC50 values were determined using a microfluidic assay that monitors the separation of a phosphorylated product from its substrate. […] For each compound, a 10 mM stock concentration in 100% DMSO was used.
IC50 values were calculated from a four-parameter logistics fit of percentage inhibition versus concentration using GraphPad Prism 5 (GraphPad Software, Inc., CA, USA).

[3] = target: S6K2 (Homo sapiens, UniProt Q9UBS0); assay: S6K2 inhibition; format: biochemical
Chain of S6K2 (Q9UBS0 whole entry): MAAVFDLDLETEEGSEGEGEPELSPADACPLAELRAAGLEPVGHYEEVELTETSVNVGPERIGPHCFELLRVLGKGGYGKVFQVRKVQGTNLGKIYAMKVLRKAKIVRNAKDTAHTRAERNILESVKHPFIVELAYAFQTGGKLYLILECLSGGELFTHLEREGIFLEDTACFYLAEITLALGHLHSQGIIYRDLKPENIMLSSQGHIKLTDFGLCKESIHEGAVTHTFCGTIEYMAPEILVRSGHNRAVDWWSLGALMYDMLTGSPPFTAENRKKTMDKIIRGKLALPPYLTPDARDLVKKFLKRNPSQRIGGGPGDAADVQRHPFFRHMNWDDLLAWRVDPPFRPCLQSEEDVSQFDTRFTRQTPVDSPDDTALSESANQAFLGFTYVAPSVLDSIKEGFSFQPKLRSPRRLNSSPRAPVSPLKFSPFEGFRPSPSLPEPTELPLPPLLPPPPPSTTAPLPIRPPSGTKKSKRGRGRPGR

[4] = system: HCV29 human bladder carcinoma cells; assay: Sulforhodamine B proliferation assay (GI50); format: cell-based; settings: HCV-29, 96 hours continuous exposure, read-out: GI50 (50% tumour growth inhibition)
Procedure: (§1) The human bladder carcinoma cell line HCV29 was obtained from Dr Richard Lamb (University of Liverpool, UK). This cell line has elevated mTORC1 and S6K activity through loss of TSC1 [46] as a result of a missense mutation and TSC2 loss that was confirmed by immunoblotting (data not shown). Cells were cultured in RPMI (Invitrogen, Life Technologies Ltd, Paisley, UK) containing 2 mmol/L glutamine (Invitrogen), and supplemented with non-essential amino acids (Invitrogen) 10% fetal bovine serum (PAA Laboratories Ltd, Yeovil, UK) in 5% CO2 in air at 37 °C. GI50 values (concentrations) causing 50% inhibition of proliferation for tumour cells were determined using a sulforhodamine B assay. Electrochemiluminescent immunoassays (Meso Scale Discovery, Rockville, MD, USA) measuring the inhibition of phosphorylation of RPS6-ser235/236, AKT-Thr308, AKT-Ser473, GSK3b-Ser9 and S6K-Ser421/424 were carried out as described in Raynaud et al..

[5] = system: RPS6-ser235/236; assay: Electrochemiluminescent ELISA, RPS6 Ser235/236 phosphorylation in intact cells; format: cell-based; settings: Homo sapiens, HCV-29; HCV29 intact cells, 2 hours exposure, n=3; read-out: EC50 for 50% inhibition of RPS6 Ser235/236 phosphorylation
Procedure: as §1

[6] = system: AKT-Thr308; assay: Electrochemiluminescent ELISA, AKT-Thr308 phosphorylation in intact cells; format: cell-based; settings: Homo sapiens, electrochemoluminescent ELISA
Procedure: as §1

[7] = system: AKT-Ser473; assay: Electrochemiluminescent ELISA, AKT-Ser473 phosphorylation in intact cells; format: cell-based; settings: Homo sapiens, electrochemoluminescent ELISA
Procedure: as §1

[8] = system: GSK3b-Ser9; assay: Electrochemiluminescent ELISA, GSK3b-Ser9 phosphorylation in intact cells; format: cell-based; settings: Homo sapiens, electrochemoluminescent ELISA
Procedure: as §1

[9] = system: S6K-Ser421/424; assay: Electrochemiluminescent ELISA, S6K-Ser421/424 phosphorylation in intact cells; format: cell-based; settings: Homo sapiens, electrochemoluminescent ELISA
Procedure: as §1

[10] = Table 2, confirmation DELFIA assay, mean ± standard error, duplicate
[11] = Table 3, confirmation DELFIA assay, mean ± standard error, duplicate
[12] = Table 4, mobility shift assay, mean ± SD triplicate, or duplicate/single measurement as footnoted, read-out: S6K1 IC50
[13] = Table 5, mobility shift assay, mean ± SD triplicate, or single measurement as footnoted, read-out: S6K1 IC50
[14] = Table 6, mobility shift assay, mean ± SD triplicate, or duplicate ± SE / single measurement as footnoted, read-out: S6K1 IC50

SMILES: O=c1c2ccccc2nc(-c2cccnc2)n1-c1ccc(Br)cn1 [Compound 7]
- LE (ligand efficiency) ([1]; Table 2): 0.38
- IC50 [1, 10]: 0.26 ± 0.15 µM

SMILES: Cc1ccc(-n2c(-c3ccccn3)nc3ccccc3c2=O)cc1 [Compound 8]
- LE (ligand efficiency) ([1]; Table 2): 0.33
- IC50 [1, 10]: 1.55 ± 0.92 µM

SMILES: O=c1c2ccccc2nc(-c2ccccn2)n1-c1ccccc1 [Compound 9]
- LE (ligand efficiency) ([1]; Table 2): 0.33
- IC50 [1, 10]: 2.97 ± 1.53 µM

SMILES: CC(C)n1c(-c2nonc2N)nc2ccccc21 [Compound 10]
- LE (ligand efficiency) ([1]; Table 3): 0.50
- IC50 [1, 11]: 0.34 ± 0.14 µM

SMILES: C=CCn1c(-c2nonc2N)nc2ccccc21 [Compound 11]
- IC50 ([1]; HTS hits): 7 µM
- LE (ligand efficiency) ([1]; Table 3): 0.40
- IC50 [1, 11]: 6.98 ± 2.07 µM

SMILES: Cn1c(-c2nonc2N)nc2ccccc21 [Compound 15a, 4-(1-Methyl-1H-benzoimidazol-2-yl)-1,2,5-oxadiazole-3-ylamine]
- LE (ligand efficiency) ([2]; Table 4): 0.58
- IC50 [2, 12]: 0.194 µM
- activity against S6K1 (in words) [2]: about six-fold less active

SMILES: CCn1c(-c2nonc2N)nc2ccccc21 [Compound 15b, 4-(1-Ethyl-1H-benzoimidazol-2-yl)-1,2,5-oxadiazole-3-ylamine]
- LE (ligand efficiency) ([2]; Table 4): 0.59
- IC50 [2, 12]: 0.0598 ± 0.0324 µM

SMILES: Nc1nonc1-c1nc2ccccc2n1C1CC1 [Compound 15c, 4-(1-Cyclopropyl-1H-benzoimidazol-2-yl)-1,2,5-oxadiazole-3-ylamine]
- LE (ligand efficiency) ([2]; Table 4): 0.57
- IC50 [2, 12]: 0.0366 ± 0.007 µM

SMILES: Nc1nonc1-c1nc2ccccc2n1Cc1ccccc1 [Compound 15d, 4-(1-Benzyl-1H-benzoimidazol-2-yl)-1,2,5-oxadiazole-3-ylamine]
- IC50 [2, 12]: > 100 µM
- activity against S6K1 (in words) [2]: complete loss of biochemical activity

SMILES: Nc1nonc1-c1nc2ccccc2n1CC1CC1 [Compound 15e, 4-(1-Cyclopropylmethyl-1H-benzoimidazol-2-yl)-1,2,5-oxadiazole-3-ylamine]
- LE (ligand efficiency) ([2]; Table 4): 0.56
- IC50 [2, 12]: 0.0198 µM

SMILES: CC(=O)Nc1nonc1-c1nc2ccccc2n1C1CC1 [Compound 16, N-[4-(1-Cyclopropyl-1H-benzoimidazol->2-yl)-1,2,5-oxadiazole-3-yl]-acetamide]
- IC50 ([2]; acetylated aminooxadiazole, read-out: S6K IC50): > 100 µM

SMILES: CCn1c(-c2nonc2N)nc2cc(Br)ccc21 [Compound 20a, 3-Amino-4-(5-bromo-1-ethyl-1H-benzimidazol-2-yl)-1,2,5-oxadiazole]
- LE (ligand efficiency) ([2]; Table 5): 0.55
- IC50 [2, 13]: 0.0664 ± 0.0056 µM

SMILES: CCn1c(-c2nonc2N)nc2cc(-c3ccccc3)ccc21 [Compound 20b, 3-Amino-4-(1-ethyl-5-phenyl-1H-benzimidazol-2-yl)-1,2,5-oxadiazole]
- LE (ligand efficiency) ([2]; Table 5): 0.35
- IC50 [2, 13]: 1.64 ± 0.53 µM

SMILES: CCn1c(-c2nonc2N)nc2cc(C3CC3)ccc21 [Compound 20c, 3-Amino-4-(5-cyclopropyl-1-ethyl-1H-benzimidazol-2-yl)-1,2,5-oxadiazole]
- LE (ligand efficiency) ([2]; Table 5): 0.45
- IC50 [2, 13]: 0.334 ± 0.0251 µM

SMILES: CCn1c(-c2nonc2N)nc2cc(OC)ccc21 [Compound 20d, 3-Amino-4-(1-ethyl-5-methoxy-1H-benzimidazol-2-yl)-1,2,5-oxadiazole]
- LE (ligand efficiency) ([2]; Table 5): 0.52
- IC50 [2, 13]: 0.0634 µM

SMILES: CCn1c(-c2nonc2N)nc2cc(NC)ccc21 [Compound 20e, 3-Amino-4-(1-ethyl-5-methylamino-1H-benzimidazol-2-yl)-1,2,5-oxadiazole]
- LE (ligand efficiency) ([2]; Table 5): 0.50
- IC50 [2, 13]: 0.148 µM

SMILES: CCn1c(-c2nonc2N)nc2cccc(Br)c21 [Compound 20f, 3-Amino-4-(7-bromo-1-ethyl-1H-benzimidazol-2-yl)-1,2,5-oxadiazole]
- LE (ligand efficiency) ([2]; Table 5): 0.50
- IC50 [2, 13]: 0.303 ± 0.021 µM

SMILES: CCn1c(-c2nonc2N)nc2cccc(-c3cccnc3)c21 [Compound 20g, 3-Amino-4-(7-(3-pyridinyl)-1-ethyl-1H-benzimidazol-2-yl)-1,2,5-oxadiazole]
- LE (ligand efficiency) ([2]; Table 5): 0.39
- IC50 [2, 13]: 0.352 ± 0.173 µM

SMILES: CCn1c(-c2nonc2N)nc2cnc(Br)cc21 [Compound 21a, 3-Amino-4-(6-bromo-1-ethyl-1H-imidazo[4,5-c]pyridin-2-yl)-1,2,5-oxadiazole]
- LE (ligand efficiency) ([2]; Table 6): 0.59
- IC50 [2, 14]: 0.0197 ± 0.0026 µM

SMILES: CCn1c(-c2nonc2N)nc2cnc(Oc3cccc(S(C)(=O)=O)c3)cc21 [Compound 21b, 4-[1-Ethyl-6-(3-methanesulfonyl-phenoxy)-1H-imidazo[4,5-c]pyridin-2-yl]-1,2,5-oxadiazole-3-ylamine]
- LE (ligand efficiency) ([2]; Table 6): 0.34
- IC50 [2, 14]: 0.103 ± 0.023 µM

SMILES: CCn1c(-c2nonc2N)nc2cnc(-c3ccccc3)cc21 [Compound 21c, 4-(1-Ethyl-6-phenyl-1H-imidazo[4,5-c]pyridin-2-yl)-1,2,5-oxadiazole-3-ylamine]
- IC50 [2, 14]: > 100 µM
- activity against S6K1 (in words) [2]: abolished all affinity for S6K1

SMILES: CCn1c(-c2nonc2N)nc2cnc(N3CCOCC3)cc21 [Compound 21d, 4-(1-Ethyl-6-morpholin-4-yl-1H-imidazo[4,5-c]pyridin-2-yl)-1,2,5-oxadiazole-3-ylamine]
- LE (ligand efficiency) ([2]; Table 6): 0.42
- IC50 [2, 14]: 0.11 µM

SMILES: CCn1c(-c2nonc2N)nc2cnc(C)cc21 [Compound 21e, 4-(1-Ethyl-6-methyl-1H-imidazo[4,5-c]pyridin-2-yl)-1,2,5-oxadiazole-3-ylamine]
- ligand efficiency [2]: 0.6
- LE (ligand efficiency) ([2]; Table 6): 0.60
- IC50 [2, 14]: 0.0174 ± 0.006 µM
- IC50 [3]: 0.3 ± 0.102 µM
- GI50 [4]: 3.5 µM
- EC50 [5]: 9.1 ± 1.5 µM
- IC50 [6]: > 15 µM
- IC50 [7]: > 15 µM
- IC50 [8]: > 15 µM
- IC50 [9]: > 15 µM
